Measurements as given in patent publication US9386769B2 (HUNAN RESEARCH INSTITUTE OF CHEMICAL INDUSTRY CO., LTD., priority 2011, dated 2016).
Like-named read-outs stand apart in the source and are kept apart here.

Columns and labels:
Tetranychus urticae = test: Acaricidal activity against Tetranychus urticae, dipping of horsebean seedlings; type: in vivo
Experimental: Bioassay method: Stock solution of every test compound was prepared in an appropriate solvent such as N,N-dimethylformamide, and a small amount of Tween 80 was added as emulsification agent, then diluted to the required test concentrations with distilled water, using the control group tested with distilled water only. 100 to 200 adults of Tetranychus urticae were transferred to well-growing horsebean seedlings and 24 hr later, horsebean seedlings with Tetranychus urticae were dipped in the test solution for 10 s, then allowed to dry with filter paper and transplanted to the beaker containing water and kept in a room for normal cultivation. Each assay contained three replications, and results were averaged. Mortality was assessed 24 hr after the treatment. The activity was rated on the basis of mortality using the following rating system: A, mortality>90; B, 90≧mortality>70; C, 70≧mortality>50; D, mortality≦50.

Alternaria alternata = test: Fungicidal activity against Alternaria alternata, mycelial growth inhibition on PDA plate; type: cell-based; details: Alternaria alternata; 25 mg/L; read-out: activities against Alternaria alternata (growth inhibition rating)
Experimental: (§1) Bioassay method: Stock solution of every test compound was prepared in an appropriate solvent such as N,N-dimethylformamide (DMF), and then diluted to the required test concentrations with sterile water containing 0.1% Tween 80; Pipetted 3 mL of test solution to 27 mL of potato dextrose agar (PDA) medium at 45° C. and poured into a Petri dish to prepare a plate after shaking thoroughly; 6 mm of diameter of fungi cake from the edge of 7-day-old […] colony was inoculated on the central of the plate, wherein mycelium facing down, and cultured in the culture tank at 28° C. The diameter of fungi spread was calculated 4 days later using the control group tested with the diluent only. Test was run 4 times. Data were subjected to EXCEL statistical software analysis and the growth inhibition of the tested compound was calculated according to the corresponding control, the activity was rated on the basis of percentage of growth inhibition using the following rating system: A, inhibition (%)>90; B, 90≧inhibition (%)>70; C, 70≧inhibition (%)>50; D, inhibition (%)≦50.
Fungicidal activities against Alternaria alternata of compounds represented by the general formula (I) were evaluated with the corresponding method in Example 18, and some of the test results are shown in Table 9 to Table 10.

Sclerotinia sclerotiorum = test: Fungicidal activity against Sclerotinia sclerotiorum, mycelial growth inhibition on PDA plate; type: cell-based; details: for inhibition at 25 µg/mL: read-out: activities against Sclerotinia sclerotiorum (growth inhibition rating)
Experimental: as §1

Botrytis cinerea = test: Fungicidal activity against Botrytis cinerea, mycelial growth inhibition on PDA plate; type: cell-based; details: for inhibition at 25 µg/mL / activities against Botrytis cinerea (growth inhibition rating): 25 mg/L; for inhibition at 25 µg/mL: read-out: activities against Botrytis cinerea (growth inhibition rating)
Experimental: as §1
Fungicidal activities against Botrytis cinerea of compounds represented by the general formula (I) were evaluated with the corresponding method in Example 18, and some of the test results are shown in Table 6 to Table 8.

Setaria viridis = test: Herbicidal activity, pre-emergence pot test, Setaria viridis; type: in vivo; details: 150 g a.i./mu, 15 to 25 days after treatment
Source text: (§2) Bioassay method: (1) Plastic pots (about 64 cm^2) were filled with soil and placed in a stainless steel basin, seeds with the same size and plumpness of monocotyledonous weeds such as Digitaria sanguinalis, Echinochloa crus-galli, Setaria viridis and Dicotyledonous weeds such as Abutilon theophrasti or Stelleria media or Solanum nigrum, Chenopodium album, Amaranthus ascedene or Amaranthus retroflexus were sown in one-third of the pot area with the soil depth of 1 cm in two different pots separately and grown to the desired leaf stage in a greenhouse wherein water is added to the stainless steel basin until the full infiltration of soils from the bottom of pots; (2) Test compounds represented by the general formula (I) were formulated by using N,N-dimethylformamide as solvent and a small amount of Tween 80 as emulsification agent, then diluted to the required test concentrations with water, using the control group tested with corresponding solvent and water only; (3) the required test solutions were applied for pre-emergence treatment 24 hr after the weeds were sown, for postemergence treatment, monocotyledonous weeds were treated at the 1-leaf stage and dicotyledonous weeds were treated at 2 leaf stage; (4) the pre- and postemergence application rates were 150 g a.i./mu, using the control group with corresponding solvent or water respectively; (5) Treatments were kept in greenhouse for cultivation; (6) Herbicidal activities were evaluated visually 15 to 25 days after treatment, on the basis of the survey results, the weed control effect can be calculated by the following formula: efficacy (%)=(the height of the weed in the control group−the height of the weed in the test group) (the height of the weed in the control group).

Chenopodium album = test: Herbicidal activity, pre-emergence pot test, Chenopodium album; type: in vivo; details: 150 g a.i./mu, 15 to 25 days after treatment
Source text: as §2

Digitaria sanguinalis = test: Herbicidal activity, pre-emergence pot test, Digitaria sanguinalis; type: in vivo; details: 150 g a.i./mu, 15 to 25 days after treatment
Source text: as §2

Amaranthus spinosus = test: Herbicidal activity, pre-emergence pot test, Amaranthus spinosus; type: in vivo; details: 150 g a.i./mu, 15 to 25 days after treatment
Source text: as §2

Echinochloa crus-galli = test: Herbicidal activity, pre-emergence pot test, Echinochloa crus-galli; type: in vivo; details: 150 g a.i./mu, 15 to 25 days after treatment
Source text: as §2

Abutilon = test: Herbicidal activity, pre-emergence pot test, Abutilon; type: in vivo, Abutilon theophrasti; details: 150 g a.i./mu, 15 to 25 days after treatment
Source text: as §2

Alternaria solani = test: Fungicidal activity against Alternaria solani; type: cell-based; details: 25 mg/L
Experimental: as §1

Alternaria mali = test: Fungicidal activity against Alternaria mali; type: cell-based; details: 25 mg/L
Experimental: as §1

Cercospora arachidicola = test: Fungicidal activity against Cercospora arachidicola; type: cell-based; details: 25 mg/L
Experimental: as §1

Fusarium oxysporum = test: Fungicidal activity against Fusarium oxysporum; type: cell-based; details: 25 mg/L
Experimental: as §1

Marssonina coronaria = test: Fungicidal activity against Marssonina coronaria; type: cell-based; details: 25 mg/L
Experimental: as §1

Sphaceloma ampelinum = test: Fungicidal activity against Sphaceloma ampelinum; type: cell-based; details: 25 mg/L
Experimental: as §1

[1] = Sclerotinia sclerotiorum, 1.25 mg/L, Table 4, read-out: activities against Sclerotinia sclerotiorum (growth inhibition)
[2] = Sclerotinia sclerotiorum, 2.5 mg/L, Table 4, read-out: activities against Sclerotinia sclerotiorum (growth inhibition)
[3] = Sclerotinia sclerotiorum, 5 mg/L, Table 4, read-out: activities against Sclerotinia sclerotiorum (growth inhibition)
[4] = Sclerotinia sclerotiorum, 10 mg/L, Table 4, read-out: activities against Sclerotinia sclerotiorum (growth inhibition)
[5] = Sclerotinia sclerotiorum, 25 mg/L
[6] = Botrytis cinerea, 1.25 mg/L, Table 7, read-out: activities against Botrytis cinerea (growth inhibition)
[7] = Botrytis cinerea, 2.5 mg/L, Table 7, read-out: activities against Botrytis cinerea (growth inhibition)
[8] = Botrytis cinerea, 5 mg/L, Table 7, read-out: activities against Botrytis cinerea (growth inhibition)
[9] = Botrytis cinerea, 10 mg/L, Table 7, read-out: activities against Botrytis cinerea (growth inhibition)

## C#CCOc1ccc([N+](=O)[O-])c(N(CC)Cc2cnc(Cl)s2)n1 [Compound 25, 6-propargyloxy-N-((2-chlorothiazole-5-yl)methyl)-N-ethyl-3-nitropyridine-2-amine]
Tetranychus urticae; Tetranychus urticae, 24 h, read-out: activities against Tetranychus urticae (mortality rating)
  mortality at 500 µg/mL: 50 to 70%
Alternaria alternata
  inhibition at 25 µg/mL: 70 to 90%
Sclerotinia sclerotiorum; [1]
  inhibition at 1.25 µg/mL: 78%
Sclerotinia sclerotiorum; [2]
  inhibition at 2.5 µg/mL: 84%
Sclerotinia sclerotiorum; [3]
  inhibition at 5 µg/mL: 90%
Sclerotinia sclerotiorum; [4]
  inhibition at 10 µg/mL: 96%
Sclerotinia sclerotiorum; [5]
  inhibition at 25 µg/mL: > 90%
Botrytis cinerea; [6]
  inhibition at 1.25 µg/mL: 85%
Botrytis cinerea; [7]
  inhibition at 2.5 µg/mL: 90%
Botrytis cinerea; [8]
  inhibition at 5 µg/mL: 93%
Botrytis cinerea; [9]
  inhibition at 10 µg/mL: 97%
Botrytis cinerea; Botrytis cinerea
  inhibition at 25 µg/mL: > 90%

## CCN(Cc1cnc(Cl)s1)c1nc(SC)ccc1[N+](=O)[O-] [Compound 18]
Setaria viridis
  herbicidal activity (efficacy), Setaria viridis: 80%
Chenopodium album
  herbicidal activity (efficacy), Chenopodium album: 0%
Digitaria sanguinalis
  herbicidal activity (efficacy), Digitaria sanguinalis: 90%
Amaranthus spinosus
  herbicidal activity (efficacy), Amaranthus spinosus: 0%
Echinochloa crus-galli
  herbicidal activity (efficacy), Echinochloa crus-galli: 80%
Botrytis cinerea
  activities against Botrytis cinerea (growth inhibition rating): B (B, 90≧inhibition (%)>70)
Abutilon
  herbicidal activity (efficacy), Abutilon: 0%

## CNc1ccc([N+](=O)[O-])c(N(C)Cc2cnc(Cl)s2)n1 [Compound 20]
Setaria viridis
  herbicidal activity (efficacy), Setaria viridis: 70%
Chenopodium album
  herbicidal activity (efficacy), Chenopodium album: 90%
Digitaria sanguinalis
  herbicidal activity (efficacy), Digitaria sanguinalis: 70%
Amaranthus spinosus
  herbicidal activity (efficacy), Amaranthus spinosus: 90%
Echinochloa crus-galli
  herbicidal activity (efficacy), Echinochloa crus-galli: 70%
Abutilon
  herbicidal activity (efficacy), Abutilon: 70%

## C=CCOc1ccc([N+](=O)[O-])c(N(CC)Cc2cnc(Cl)s2)n1 [Compound 29, 6-allyloxy-N-((2-chlorothiazole-5-yl)methyl)-N-ethyl-nitropyridine-2-amine]
Tetranychus urticae; 500 mg/L, mortality 24 hr after the treatment
  activities against Tetranychus urticae (mortality rating): C (C, 70≧mortality>50)
Sclerotinia sclerotiorum; 1.25 mg/L, Table 4
  activities against Sclerotinia sclerotiorum (growth inhibition): 63%
Sclerotinia sclerotiorum; 2.5 mg/L, Table 4
  activities against Sclerotinia sclerotiorum (growth inhibition): 72%
Sclerotinia sclerotiorum; 5 mg/L, Table 4
  activities against Sclerotinia sclerotiorum (growth inhibition): 79%
Sclerotinia sclerotiorum; 10 mg/L, Table 4
  activities against Sclerotinia sclerotiorum (growth inhibition): 83%
Sclerotinia sclerotiorum; 25 mg/L
  activities against Sclerotinia sclerotiorum (growth inhibition rating): A (A, inhibition (%)>90)
Botrytis cinerea; 1.25 mg/L, Table 7
  activities against Botrytis cinerea (growth inhibition): 62%
Botrytis cinerea; 2.5 mg/L, Table 7
  activities against Botrytis cinerea (growth inhibition): 67%
Botrytis cinerea; 5 mg/L, Table 7
  activities against Botrytis cinerea (growth inhibition): 73%
Botrytis cinerea; 10 mg/L, Table 7
  activities against Botrytis cinerea (growth inhibition): 80%
Botrytis cinerea
  activities against Botrytis cinerea (growth inhibition rating): A (A, inhibition (%)>90)

## CC12CC1(C)C(=O)N(c1cc(Cl)cc(Cl)c1)C2=O (stereo not drawn) [Procymidone, reference compound]
Alternaria solani
  activity against Alternaria solani: 94%
Alternaria mali
  activity against Alternaria mali: 82%
Sclerotinia sclerotiorum; Sclerotinia sclerotiorum, 0.1562 mg/L, Table 5, read-out: activities against Sclerotinia sclerotiorum (growth inhibition)
  inhibition at 0.1562 µg/mL: 34%
Sclerotinia sclerotiorum; Sclerotinia sclerotiorum, 0.3125 mg/L, Table 5, read-out: activities against Sclerotinia sclerotiorum (growth inhibition)
  inhibition at 0.3125 µg/mL: 63%
Sclerotinia sclerotiorum; Sclerotinia sclerotiorum, 0.625 mg/L, Table 5, read-out: activities against Sclerotinia sclerotiorum (growth inhibition)
  inhibition at 0.625 µg/mL: 66%
Sclerotinia sclerotiorum; Sclerotinia sclerotiorum, 1.255 mg/L, Table 5, read-out: activities against Sclerotinia sclerotiorum (growth inhibition)
  inhibition at 1.255 µg/mL: 76%
Sclerotinia sclerotiorum; Sclerotinia sclerotiorum, 2.5 mg/L, Table 5, read-out: activities against Sclerotinia sclerotiorum (growth inhibition)
  inhibition at 2.5 µg/mL: 79%
Sclerotinia sclerotiorum; Sclerotinia sclerotiorum, 5 mg/L, Table 5, read-out: activities against Sclerotinia sclerotiorum (growth inhibition)
  inhibition at 5 µg/mL: 93%
Cercospora arachidicola
  activity against Cercospora arachidicola: 85%
Botrytis cinerea; Botrytis cinerea, 0.1562 mg/L, Table 8, read-out: activities against Botrytis cinerea (growth inhibition)
  inhibition at 0.1562 µg/mL: 46%
Botrytis cinerea; Botrytis cinerea, 0.3125 mg/L, Table 8, read-out: activities against Botrytis cinerea (growth inhibition)
  inhibition at 0.3125 µg/mL: 67%
Botrytis cinerea; Botrytis cinerea, 0.625 mg/L, Table 8, read-out: activities against Botrytis cinerea (growth inhibition)
  inhibition at 0.625 µg/mL: 75%
Botrytis cinerea; Botrytis cinerea, 1.255 mg/L, Table 8, read-out: activities against Botrytis cinerea (growth inhibition)
  inhibition at 1.255 µg/mL: 83%
Botrytis cinerea; Botrytis cinerea, 2.5 mg/L, Table 8, read-out: activities against Botrytis cinerea (growth inhibition)
  inhibition at 2.5 µg/mL: 93%
Botrytis cinerea; Botrytis cinerea, 5 mg/L, Table 8, read-out: activities against Botrytis cinerea (growth inhibition)
  inhibition at 5 µg/mL: 100%
Fusarium oxysporum
  activity against Fusarium oxysporum: 38%
Marssonina coronaria
  activity against Marssonina coronaria: 75%
Sphaceloma ampelinum
  activity against Sphaceloma ampelinum: 96%

## CCN(Cc1cnc(Cl)s1)c1nc(N(C)C)ccc1[N+](=O)[O-] [Compound 28, 6-dimethylamino-N-((2-chlorothiazole-5-yl)methyl)-N-ethyl-3-nitropyridine-2-amine]
other
  melting point: 74.6 to 78.4 °C
Sclerotinia sclerotiorum; [1]
  inhibition at 1.25 µg/mL: 42%
Sclerotinia sclerotiorum; [2]
  inhibition at 2.5 µg/mL: 64%
Sclerotinia sclerotiorum; [3]
  inhibition at 5 µg/mL: 82%
Sclerotinia sclerotiorum; [4]
  inhibition at 10 µg/mL: 90%
Sclerotinia sclerotiorum; [5]
  inhibition at 25 µg/mL: > 90%
Botrytis cinerea; [6]
  inhibition at 1.25 µg/mL: 79%
Botrytis cinerea; [7]
  inhibition at 2.5 µg/mL: 86%
Botrytis cinerea; [8]
  inhibition at 5 µg/mL: 91%
Botrytis cinerea; [9]
  inhibition at 10 µg/mL: 96%
Botrytis cinerea; Botrytis cinerea
  inhibition at 25 µg/mL: > 90%

## CN(C)c1ccc([N+](=O)[O-])c(N(C)Cc2cnc(Cl)s2)n1 [Compound 23]
Setaria viridis
  herbicidal activity (efficacy), Setaria viridis: 0%
Chenopodium album
  herbicidal activity (efficacy), Chenopodium album: 80%
Digitaria sanguinalis
  herbicidal activity (efficacy), Digitaria sanguinalis: 0%
Amaranthus spinosus
  herbicidal activity (efficacy), Amaranthus spinosus: 80%
Echinochloa crus-galli
  herbicidal activity (efficacy), Echinochloa crus-galli: 0%
Botrytis cinerea
  activities against Botrytis cinerea (growth inhibition rating): B (B, 90≧inhibition (%)>70)
Abutilon
  herbicidal activity (efficacy), Abutilon: 70%
